We go through 16 compounds from patent US20250114345A1, “COMPOUNDS AND COMPOSITIONS AS CBP/P300 DEGRADERS AND USES THEREOF” (Oncopia Therapeutics, Inc. d/b/a/ SK Life Science Labs, priority 2023, published 2025).

Molecules are shown by their SMILES.

Assay [1] has as its target T1, p300 (Homo sapiens, UniProt Q09472).
T1 construct: host or cells: A549 P300 HiBit cells
Briefly: P300 degradation, HiBit technology in A549 P300 HiBit cells (2 h). Format: cell-based. Particulars: 2 hrs post treatment; for Dmax: A549, A549 P300 HiBit cells; for DC50: A549 P300 HiBit cells. The method, boiled down: (§1)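 A549 HiBiT knock-in cells seeded overnight at 37 °C, 5% CO2 in F-12K with 10% heat-inactivated FBS, then given serial dilutions of compound from 10 mM DMSO stocks. Lytic HiBiT detection reagent added for 10 min at room temperature; luminescence read. Potency and Dmax reported.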
In general terms: The HiBiT peptide binds its large partner to form an active luciferase.

Assay [2] deals with T2, CBP (Homo sapiens, UniProt Q92793).
T2 construct: host or cells: A549 CBP HiBit cells
T2 sequence (Q92793 whole entry): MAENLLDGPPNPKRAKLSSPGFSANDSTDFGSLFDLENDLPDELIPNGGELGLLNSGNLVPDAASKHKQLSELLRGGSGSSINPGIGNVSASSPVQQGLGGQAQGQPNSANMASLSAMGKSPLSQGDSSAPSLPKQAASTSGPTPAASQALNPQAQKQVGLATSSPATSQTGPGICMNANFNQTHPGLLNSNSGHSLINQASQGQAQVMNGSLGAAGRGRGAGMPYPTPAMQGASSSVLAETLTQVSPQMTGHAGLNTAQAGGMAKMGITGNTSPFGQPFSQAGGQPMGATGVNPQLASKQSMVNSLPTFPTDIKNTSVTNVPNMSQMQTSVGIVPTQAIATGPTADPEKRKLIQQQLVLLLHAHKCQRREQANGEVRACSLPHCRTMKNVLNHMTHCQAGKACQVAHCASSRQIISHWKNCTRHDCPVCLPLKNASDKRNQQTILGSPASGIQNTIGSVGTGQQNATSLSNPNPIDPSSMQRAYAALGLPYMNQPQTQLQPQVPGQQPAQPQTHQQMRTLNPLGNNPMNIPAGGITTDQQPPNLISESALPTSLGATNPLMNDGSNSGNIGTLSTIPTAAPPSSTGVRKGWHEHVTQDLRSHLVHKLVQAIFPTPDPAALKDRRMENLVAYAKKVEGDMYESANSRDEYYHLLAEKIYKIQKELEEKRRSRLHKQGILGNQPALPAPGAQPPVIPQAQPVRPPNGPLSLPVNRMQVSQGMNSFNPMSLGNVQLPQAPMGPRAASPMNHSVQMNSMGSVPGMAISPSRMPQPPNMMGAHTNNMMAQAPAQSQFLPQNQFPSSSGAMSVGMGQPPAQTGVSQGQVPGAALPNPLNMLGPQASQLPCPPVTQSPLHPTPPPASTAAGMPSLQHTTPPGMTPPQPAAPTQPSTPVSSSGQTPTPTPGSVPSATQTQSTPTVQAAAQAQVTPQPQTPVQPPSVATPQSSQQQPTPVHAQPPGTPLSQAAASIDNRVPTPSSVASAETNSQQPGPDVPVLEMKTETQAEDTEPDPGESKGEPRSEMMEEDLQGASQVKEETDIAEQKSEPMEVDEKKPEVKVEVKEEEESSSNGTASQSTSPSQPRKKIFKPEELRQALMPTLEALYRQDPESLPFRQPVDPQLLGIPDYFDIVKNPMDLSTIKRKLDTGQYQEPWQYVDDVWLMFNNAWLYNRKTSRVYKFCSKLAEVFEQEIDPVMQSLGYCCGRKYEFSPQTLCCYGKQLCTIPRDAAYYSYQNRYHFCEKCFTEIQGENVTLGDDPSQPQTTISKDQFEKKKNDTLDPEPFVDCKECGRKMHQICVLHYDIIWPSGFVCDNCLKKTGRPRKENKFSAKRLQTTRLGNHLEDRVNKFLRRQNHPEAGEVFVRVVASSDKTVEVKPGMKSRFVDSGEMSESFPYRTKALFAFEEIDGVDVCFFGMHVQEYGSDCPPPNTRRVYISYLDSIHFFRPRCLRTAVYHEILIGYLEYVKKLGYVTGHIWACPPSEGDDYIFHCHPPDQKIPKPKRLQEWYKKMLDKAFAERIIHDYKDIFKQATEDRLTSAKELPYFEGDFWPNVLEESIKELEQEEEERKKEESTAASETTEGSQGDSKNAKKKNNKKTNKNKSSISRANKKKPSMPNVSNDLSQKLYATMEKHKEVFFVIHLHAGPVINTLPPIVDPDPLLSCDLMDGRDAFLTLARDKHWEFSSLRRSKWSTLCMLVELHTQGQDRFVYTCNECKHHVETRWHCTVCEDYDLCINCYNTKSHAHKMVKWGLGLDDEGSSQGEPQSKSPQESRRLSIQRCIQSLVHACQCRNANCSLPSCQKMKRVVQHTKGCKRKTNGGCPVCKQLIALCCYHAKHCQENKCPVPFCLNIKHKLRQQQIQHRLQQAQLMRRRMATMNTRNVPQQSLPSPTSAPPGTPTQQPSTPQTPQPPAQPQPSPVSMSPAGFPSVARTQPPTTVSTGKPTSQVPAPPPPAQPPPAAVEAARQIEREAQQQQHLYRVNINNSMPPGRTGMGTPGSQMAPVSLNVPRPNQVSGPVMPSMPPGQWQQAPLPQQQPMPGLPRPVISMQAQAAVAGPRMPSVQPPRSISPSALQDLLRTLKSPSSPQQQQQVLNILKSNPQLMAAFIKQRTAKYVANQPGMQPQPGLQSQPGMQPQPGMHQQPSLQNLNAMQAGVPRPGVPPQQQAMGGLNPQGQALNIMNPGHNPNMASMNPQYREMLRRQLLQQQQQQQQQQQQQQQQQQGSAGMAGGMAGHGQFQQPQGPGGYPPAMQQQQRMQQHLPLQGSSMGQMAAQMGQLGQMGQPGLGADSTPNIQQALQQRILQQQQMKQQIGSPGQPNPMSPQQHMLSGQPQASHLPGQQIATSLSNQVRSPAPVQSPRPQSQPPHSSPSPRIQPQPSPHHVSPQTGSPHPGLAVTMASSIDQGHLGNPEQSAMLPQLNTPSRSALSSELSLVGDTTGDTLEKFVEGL
Nature of the assay: CBP degradation, HiBit technology in A549 CBP HiBit cells (24 h). Particulars: 24 hrs post treatment. Format: cell-based. The method, boiled down: as §1

T1 sequence (Q09472 whole entry): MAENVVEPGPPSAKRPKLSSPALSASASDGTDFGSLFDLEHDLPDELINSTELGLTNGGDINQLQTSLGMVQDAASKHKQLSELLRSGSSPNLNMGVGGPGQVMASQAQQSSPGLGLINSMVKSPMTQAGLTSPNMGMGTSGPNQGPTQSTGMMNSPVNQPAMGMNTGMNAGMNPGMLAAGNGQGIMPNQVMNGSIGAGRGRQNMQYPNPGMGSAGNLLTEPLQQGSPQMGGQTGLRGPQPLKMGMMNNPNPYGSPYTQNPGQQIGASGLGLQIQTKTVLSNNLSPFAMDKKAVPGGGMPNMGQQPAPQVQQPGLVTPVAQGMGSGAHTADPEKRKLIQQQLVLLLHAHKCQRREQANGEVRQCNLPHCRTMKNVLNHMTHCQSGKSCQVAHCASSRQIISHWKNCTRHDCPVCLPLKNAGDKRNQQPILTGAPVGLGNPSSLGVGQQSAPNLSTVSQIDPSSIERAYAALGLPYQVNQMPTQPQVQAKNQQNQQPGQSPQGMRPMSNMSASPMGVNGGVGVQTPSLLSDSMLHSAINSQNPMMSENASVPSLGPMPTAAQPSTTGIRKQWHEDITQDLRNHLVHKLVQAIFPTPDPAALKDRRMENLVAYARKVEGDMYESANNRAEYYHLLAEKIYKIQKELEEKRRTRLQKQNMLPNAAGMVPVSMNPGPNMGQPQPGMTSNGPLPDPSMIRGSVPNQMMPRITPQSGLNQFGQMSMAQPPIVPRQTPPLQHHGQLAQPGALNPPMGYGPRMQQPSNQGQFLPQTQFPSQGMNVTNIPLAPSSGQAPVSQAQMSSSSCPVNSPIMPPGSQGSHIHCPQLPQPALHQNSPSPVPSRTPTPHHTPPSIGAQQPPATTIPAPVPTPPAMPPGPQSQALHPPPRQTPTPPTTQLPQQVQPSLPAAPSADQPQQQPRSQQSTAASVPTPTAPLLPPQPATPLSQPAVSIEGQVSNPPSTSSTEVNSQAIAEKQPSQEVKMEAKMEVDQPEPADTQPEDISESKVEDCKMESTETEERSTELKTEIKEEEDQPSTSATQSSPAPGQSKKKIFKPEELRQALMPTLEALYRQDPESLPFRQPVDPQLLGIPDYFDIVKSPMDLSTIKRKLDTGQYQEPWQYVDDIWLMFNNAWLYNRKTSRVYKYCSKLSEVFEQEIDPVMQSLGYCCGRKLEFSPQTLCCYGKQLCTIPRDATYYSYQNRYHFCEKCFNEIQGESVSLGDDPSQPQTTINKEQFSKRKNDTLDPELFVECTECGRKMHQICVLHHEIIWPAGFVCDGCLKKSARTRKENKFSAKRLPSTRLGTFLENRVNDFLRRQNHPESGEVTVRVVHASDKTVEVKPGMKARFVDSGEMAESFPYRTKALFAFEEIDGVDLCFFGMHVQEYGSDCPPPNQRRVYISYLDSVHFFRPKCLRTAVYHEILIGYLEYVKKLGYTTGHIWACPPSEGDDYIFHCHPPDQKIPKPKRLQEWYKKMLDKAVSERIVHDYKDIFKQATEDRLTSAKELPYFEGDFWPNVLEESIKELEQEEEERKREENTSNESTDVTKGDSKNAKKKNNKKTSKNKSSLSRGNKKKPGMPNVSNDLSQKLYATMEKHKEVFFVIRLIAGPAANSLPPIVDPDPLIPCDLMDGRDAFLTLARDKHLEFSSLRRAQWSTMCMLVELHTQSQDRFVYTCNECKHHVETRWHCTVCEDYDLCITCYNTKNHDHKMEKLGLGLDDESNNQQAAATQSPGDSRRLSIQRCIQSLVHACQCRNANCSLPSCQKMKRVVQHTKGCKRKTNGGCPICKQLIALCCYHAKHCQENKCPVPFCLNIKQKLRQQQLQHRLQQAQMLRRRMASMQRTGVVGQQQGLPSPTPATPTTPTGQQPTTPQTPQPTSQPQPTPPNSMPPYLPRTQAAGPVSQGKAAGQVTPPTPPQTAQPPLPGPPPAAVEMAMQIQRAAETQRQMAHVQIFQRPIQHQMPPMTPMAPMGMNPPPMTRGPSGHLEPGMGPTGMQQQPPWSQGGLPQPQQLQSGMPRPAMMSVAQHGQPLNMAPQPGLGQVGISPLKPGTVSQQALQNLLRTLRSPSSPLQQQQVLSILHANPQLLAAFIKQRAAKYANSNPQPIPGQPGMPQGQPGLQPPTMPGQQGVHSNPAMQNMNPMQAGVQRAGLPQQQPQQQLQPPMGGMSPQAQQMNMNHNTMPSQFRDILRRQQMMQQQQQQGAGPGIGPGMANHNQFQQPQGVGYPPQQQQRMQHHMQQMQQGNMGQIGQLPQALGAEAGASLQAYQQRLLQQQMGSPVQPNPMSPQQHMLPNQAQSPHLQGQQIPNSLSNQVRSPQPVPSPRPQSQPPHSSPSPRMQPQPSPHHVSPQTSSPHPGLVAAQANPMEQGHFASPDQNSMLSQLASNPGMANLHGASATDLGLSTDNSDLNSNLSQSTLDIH

The term Dmax denotes the greatest extent of degradation seen. The term DC50 denotes the midpoint of the concentration-degradation curve. The low end stands for a more potent degrader, the high end for a less potent degrader. In assay [1], `Cc1cc2c(N3CCCc4nc(-c5ccc(C(=O)NCC#Cc6ccc7occ(C8CCC(=O)NC8=O)c7c6)nc5)ncc43)cc(Cl)cc2n(C)c1=O` (stereo not shown) [Example B119, 5-(5-(7-chloro-1,3-dimethyl-2-oxo-1,2-dihydroquinolin-5-yl)-5,6,7,8-tetrahydro[3,2-d]pyrimidin-2-yl)-N-(3-(3-(2,6-dioxopiperidin-3-yl)benzofuran-5-yl)prop-2-yn-1-yl) picolinamide] gave a maximal degradation (Dmax) of 60 to 79% and a DC50 of 1 to 9.9 nM. In assay [2], this compound registered a DC50 greater than 1000 nM and a maximal degradation (Dmax) of less than 20%.
The corresponding values for `Cc1cc2c(N3CCCc4nc(-c5ccc(C(=O)NCC#Cc6cc7c(C8CCC(=O)NC8=O)cccc7o6)nc5)ncc43)cc(C3(F)CCOCC3)cc2n(C)c1=O` (stereo not shown) [Example B82, N-(3-(4-(2,6-dioxopiperidin-3-yl)benzofuran-2-yl)prop-2-yn-1-yl)-5-(5-(7-(4-fluorotetrahydro-2H-pyran-4-yl)-1,3-dimethyl-2-oxo-1,2-dihydroquinolin-5-yl)-5,6,7,8-tetrahydropyrido [3,2-d]pyrimidin-2-yl)picolinamide] are greater than 80%, 1 to 9.9 nM, greater than 1000 nM and less than 20%.
In the same order, the values of `Cc1cc2c(N3CCCc4cc(-c5ccc(C(=O)NCC#Cc6cc7c(C8CCC(=O)NC8=O)cccc7o6)nc5)nnc43)cc(C3CCOCC3)cc2n(C)c1=O` (stereo not shown) [Example B138, 5-(8-(1,3-dimethyl-2-oxo-7-(tetrahydro-2H-pyran-4-yl)-1,2-dihydroquinolin-5-yl)-5,6,7,8-tetrahydropyrido[2,3-c]pyridazin-3-yl)-N-(3-(4-(2,6-dioxopiperidin-3-yl)benzofuran-2-yl)prop-2-yn-1-yl)picolinamide] are greater than 80%, less than 1 nM, 100 to 999 nM and less than 20%.
In the same order, the values of `CC(C)c1cc(C2=CC(C)(C)Oc3cc(-c4ccc(C(=O)NCC#Cc5ccc6occ(C7CCC(=O)NC7=O)c6c5)nc4)ncc32)cc2c1n(C)c(=O)n2C` (stereo not shown) [Example A75, N-(3-(3-(2,6-dioxopiperidin-3-yl)benzofuran-5-yl)prop-2-yn-1-yl)-5-(4-(7-isopropyl-1,3-dimethyl-2-oxo-2,3-dihydro-1H-benzo[d]imidazol-5-yl)-2,2-dimethyl-2H-pyrano[3,2-c]pyridin-7-yl)picolinamide] are greater than 80%, 1 to 9.9 nM, greater than 1000 nM and less than 20%.
For the compound `Cc1cc2c(N3CCCc4nc(-c5ccc(C(=O)NCC#Cc6ccc7occ(C8CCC(=O)NC8=O)c7c6)nc5)ncc43)cncc2n(C)c1=O` (stereo not shown) [Example B69, 5-(5-(1,3-dimethyl-2-oxo-1,2-dihydro-1,7-naphthyridin-5-yl)-5,6,7,8-tetrahydropyrido [3,2-d]pyrimidin-2-yl)-N-(3-(3-(2,6-dioxo-piperidin-3-yl)benzofuran-5-yl)prop-2-yn-1-yl)picolinamide], the Dmax in assay [1] is 40 to 59%; in assay [2], less than 20%. The DC50 is 1 to 9.9 nM in assay [1] and greater than 1000 nM in assay [2].
The corresponding values for `Cc1cc2c(N3CCCc4nc(-c5ccc(C(=O)NCC#Cc6ccc7occ([C@H]8CCC(=O)NC8=O)c7c6)nc5)ncc43)cc(C3CCOCC3)cc2n(C)c1=O` [Example B54, (R)-5-(5-(1,3-dimethyl-2-oxo-7-(tetrahydro-2H-pyran-4-yl)-1,2-dihydroquinolin-5-yl)-5,6,7,8-tetrahydropyrido[3,2-d]pyrimidin-2-yl)-N-(3-(3-(2,6-dioxopiperidin-3-yl)benzofuran-5-yl)prop-2-yn-1-yl)picolinamide] are greater than 80%, less than 20%, less than 1 nM and greater than 1000 nM.
With `CC(C)c1cc(C2CC(C)(C)Oc3cc(-c4ccc(C(=O)NCC#Cc5ccc6occ(C7CCC(=O)NC7=O)c6c5)nc4)ncc32)cc2c1n(C)c(=O)n2C` (stereo not shown) [Example A83, N-(3-(3-(2,6-dioxo-piperidin-3-yl)benzofuran-5-yl)prop-2-yn-1-yl)-5-(4-(7-isopropyl-1,3-dimethyl-2-oxo-2,3-dihydro-1H-benzo [d]imidazol-5-yl)-2,2-dimethyl-3,4-dihydro-2H-pyrano[3,2-c]pyridin-7-yl) picolinamide], in assay [1], the maximal degradation (Dmax) was greater than 80% and the DC50 fell in the range of 1 to 9.9 nM. In assay [2], this compound returned a DC50 greater than 1000 nM and a Dmax of less than 20%.
Turning to `CC(C)c1cc(-c2cccc3cc(-c4ccc(C(=O)NCC#Cc5ccn6ncc(C7CCC(=O)NC7=O)c6c5)nc4)ncc23)cc2c1n(C)c(=O)n2C` (stereo not shown) [Example A172, N-(3-(3-(2,6-dioxo-piperidin-3-yl)pyrazolo[1,5-a]pyridin-5-yl)prop-2-yn-1-yl)-5-(8-(7-isopropyl-1,3-dimethyl-2-oxo-2,3-dihydro-1H-benzo[d]imidazol-5-yl)isoquinolin-3-yl)picolinamide], in assay [1], the Dmax is greater than 80% and the DC50 is less than 1 nM. In assay [2], this compound came in with a DC50 of 100 to 999 nM and a Dmax of less than 20%.
In the same order, the values of `Cn1c(=O)n(C)c2c(C3CC3)cc(-c3cccc4cc(-c5ccc(C(=O)NCC#Cc6cc7c(C8CCC(=O)NC8=O)cccc7o6)nc5)ncc34)cc21` (stereo not shown) [Example A261, 5-(8-(7-cyclopropyl-1,3-dimethyl-2-oxo-2,3-dihydro-1H-benzo[d]imidazol-5-yl)isoquinolin-3-yl)-N-(3-(4-(2,6-dioxopiperidin-3-yl)benzofuran-2-yl)prop-2-yn-1-yl)picolinamide] are greater than 80%, 1 to 9.9 nM, greater than 1000 nM and less than 20%.
For the compound `Cc1cc2c(N3CCCc4nc(-c5ccc(C(=O)NCC#Cc6cc7cccc(C8CCC(=O)NC8=O)c7o6)nc5)ncc43)cc(C3CCOCC3)cc2n(C)c1=O` (stereo not shown) [Example B148, 5-(5-(1,3-dimethyl-2-oxo-7-(tetrahydro-2H-pyran-4-yl)-1,2-dihydroquinolin-5-yl)-5,6,7,8-tetrahydropyrido[3,2-d]pyrimidin-2-yl)-N-(3-(7-(2,6-dioxopiperidin-3-yl)benzofuran-2-yl)prop-2-yn-1-yl)picolinamide], the Dmax was 60 to 79% in assay [1] and less than 20% in assay [2]. The results for the DC50 in assay [1] and in assay [2] were 1 to 9.9 nM and greater than 1000 nM, respectively.
In the case of `Cn1c(=O)n(C)c2ncc(-c3cccc4cc(-c5ccc(C(=O)NCC#Cc6cc7c(C8CCC(=O)NC8=O)cccc7o6)nc5)ncc34)cc21` (stereo not shown) [Example A162, 5-(8-(1,3-dimethyl-2-oxo-2,3-dihydro-1H-imidazo[4,5-b]pyridin-6-yl)isoquinolin-3-yl)-N-(3-(4-(2,6-dioxopiperidin-3-yl)benzofuran-2-yl)prop-2-yn-1-yl)picolinamide], the Dmax in assay [1] is greater than 80%; in assay [2] it was less than 20%. Further, the DC50 was less than 1 nM in assay [1] and 100 to 999 nM in assay [2].
In the same order, the values of `Cc1cc2c(N3CCCc4nc(-c5ccc(C(=O)NCC#Cc6cc7c([C@H]8CCC(=O)NC8=O)cccc7o6)nc5)ncc43)nc(N3CCOCC3)cc2n(C)c1=O` [Example B29, (R)-5-(5-(1,3-dimethyl-7-morpholino-2-oxo-1,2-dihydro-1,6-naphthyridin-5-yl)-5,6,7,8-tetrahydropyrido[3,2-d]pyrimidin-2-yl)-N-(3-(4-(2,6-dioxopiperidin-3-yl)benzofuran-2-yl)prop-2-yn-1-yl)picolinamide] are greater than 80%, less than 20%, less than 1 nM and 100 to 999 nM.
In assay [1], `Cc1cc2c(N3CCCc4nc(-c5ccc(C(=O)NCC#Cc6cc7c(C8CCC(=O)NC8=O)cccc7o6)nc5)ncc43)cc(C3CCC3)cc2n(C)c1=O` (stereo not shown) [Example B161, 5-(5-(7-cyclobutyl-1,3-dimethyl-2-oxo-1,2-dihydroquinolin-5-yl)-5,6,7,8-tetrahydropyrido [3,2-d]pyrimidin-2-yl)-N-(3-(4-(2,6-dioxo-piperidin-3-yl)benzofuran-2-yl)prop-2-yn-1-yl)picolinamide] returned a maximal degradation (Dmax) greater than 80% and a DC50 of 1 to 9.9 nM. Moreover, in assay [2], the DC50 was greater than 1000 nM and the Dmax is less than 20%.
`Cc1cc(-c2ncc3c(n2)CCCN3c2nc(N3CC4CCC(C3)O4)cc3c2cc(C)c(=O)n3C)cnc1C(=O)NCC#Cc1ccc2occ(C3CCC(=O)NC3=O)c2c1` (stereo not shown) [Example B26, 5-(5-(7-(8-oxa-3-azabicyclo[3.2.1]octan-3-yl)-1,3-dimethyl-2-oxo-1,2-dihydro-1,6-naphthyridin-5-yl)-5,6,7,8-tetrahydropyrido [3,2-d]pyrimidin-2-yl)-N-(3-(3-(2,6-dioxopiperidin-3-yl)benzofuran-5-yl)prop-2-yn-1-yl)-3-methylpicolinamide]: in assay [1], the Dmax was greater than 80% and the DC50 lay within 1 to 9.9 nM. Besides, in assay [2], the DC50 is greater than 1000 nM and the Dmax is less than 20%.
In the same order, the values of `Cc1cc(N2CCOc3nc(-c4ccc(C(=O)NCC#Cc5cc6c(C7CCC(=O)NC7=O)nccc6o5)nc4)ncc32)cc2c1n(C)c(=O)n2C` (stereo not shown) [Example A160, N-(3-(4-(2,6-dioxo-piperidin-3-yl)furo[3,2-c]pyridin-2-yl)prop-2-yn-1-yl)-5-(5-(1,3,7-trimethyl-2-oxo-2,3-dihydro-1H-benzo[d]imidazol-5-yl)-6,7-dihydro-5H-pyrimido[4,5-b] [1,4]oxazin-2-yl)picolinamide] are greater than 80%, less than 1 nM, greater than 1000 nM and less than 20%.
In the same order, the values of `Cn1c(=O)n(C)c2cc(-c3cccc4cc(-c5ccc(C(=O)NCC#Cc6ccc7occ(C8CCC(=O)NC8=O)c7c6)nc5)ncc34)ccc21` (stereo not shown) [Example A119, 5-(8-(1,3-dimethyl-2-oxo-2,3-dihydro-1H-benzo[d]imidazol-5-yl)isoquinolin-3-yl)-N-(3-(3-(2,6-dioxo-piperidin-3-yl)benzofuran-5-yl)prop-2-yn-1-yl)picolinamide] are greater than 80%, 1 to 9.9 nM, greater than 1000 nM and less than 20%.
